Laboratory results published in ChEMBL document CHEMBL1155608, “Malyngamides O and P from the sea hare Stylocheilus longicauda” (J Nat Prod, 2000).

What was measured:
Format in all cases: functional, cell-based
HT-29 = test: Cytotoxicity against human HT29 cells
P388 = test: Cytotoxicity against mouse P388 cells
A549 = test: Cytotoxicity against human A549 cells

Measured: IC50

CCCCCCC[C@@H](C/C=C/CCC(=O)N(C)C/C(=C\Cl)C/C(=C\C(=O)OC)OC)OC [MALYNGAMIDE O]
2 µg/mL: all assays above
